Data taken from patent publication US6506772B1, “Substituted [1,2,4]triazolo[1,5a]pyridine derivatives with activity as adenosine receptor ligands” (Hoffmann-La Roche Inc., priority 2000, dated 2003).
Like-named read-outs stand apart in the source and are kept apart here.

How the values were obtained:
[1] = biological target: T1, HA1 adenosine receptor (Homo sapiens, UniProt P30542); test: Human adenosine A1 receptor affinity (Ki hA1); assay type: binding
T1 sequence (P30542 1-326): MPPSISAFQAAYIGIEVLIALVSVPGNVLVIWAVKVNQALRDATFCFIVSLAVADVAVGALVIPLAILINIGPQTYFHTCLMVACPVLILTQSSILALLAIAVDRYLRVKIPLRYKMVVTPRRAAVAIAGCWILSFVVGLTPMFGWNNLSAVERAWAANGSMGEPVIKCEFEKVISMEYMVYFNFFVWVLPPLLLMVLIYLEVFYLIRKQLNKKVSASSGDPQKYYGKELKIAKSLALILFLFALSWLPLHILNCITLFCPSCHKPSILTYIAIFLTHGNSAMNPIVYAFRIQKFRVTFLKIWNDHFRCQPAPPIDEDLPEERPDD

[2] = biological target: T2, human adenosine A2A receptor (Homo sapiens, UniProt P29274); test: Human adenosine A2A receptor [3H]-SCH-58261 binding assay; details: for selectivity (A1/A2a): ratio KiHA1 divided by KiHA2A
T2 construct: expressed in transfected cells; host or cells: CHO cells, Semliki Forest virus expression system; membrane preparation
Experimental: Human Adenosine A2A Receptor
The human adenosine A2A receptor was recombinantly expressed in chinese hamster ovary (CHO) cells using the semliki forest virus expression system. Cells were harvested, washed twice by centrifugation, homogenized and again washed by centrifugation. The final washed membrane pellet was suspended in a Tris (50 mM) buffer containing 120 mM NaCl, 5 mM KCl, 2 mM CaCl2 and 10 MM MgCl2 (pH 7.4) (buffer A). […] Compounds were tested at 10 concentrations from 10 μM-0.3 nM. All assays were conducted in duplicate and repeated at least two times. Assay plates were incubated for 1 hour at room temperature before centrifugation and then bound ligand determined using a Packard Topcount scintillation counter. IC50 values were calculated using a non-linear curve fitting program and Ki values calculated using the Cheng-Prussoff equation.

[3] = affinity to human adenosine A1 receptor
[4] = affinity to human adenosine A2A receptor, read-out: Ki HA2A
[5] = recombinant human A2A in CHO cell membranes, [3H]-SCH-58261, Cheng-Prussoff, read-out: Ki hA2A

T2 sequence (P29274 whole entry): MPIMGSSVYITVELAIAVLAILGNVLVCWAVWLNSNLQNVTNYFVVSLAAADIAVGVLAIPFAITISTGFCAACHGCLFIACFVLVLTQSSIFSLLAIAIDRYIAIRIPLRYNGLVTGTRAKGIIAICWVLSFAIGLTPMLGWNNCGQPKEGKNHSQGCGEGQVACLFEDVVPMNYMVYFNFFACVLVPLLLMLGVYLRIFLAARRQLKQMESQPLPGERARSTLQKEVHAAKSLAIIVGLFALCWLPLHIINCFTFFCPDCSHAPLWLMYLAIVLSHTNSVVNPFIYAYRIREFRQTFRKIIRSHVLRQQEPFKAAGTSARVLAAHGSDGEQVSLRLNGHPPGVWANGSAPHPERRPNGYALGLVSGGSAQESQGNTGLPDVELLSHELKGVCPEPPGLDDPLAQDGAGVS

| Compound | Ki [2, 4] [nM] | further results |
| --- | --- | --- |
| CC1CCCN1C(=O)c1cc(N)n2nc(-c3ccc(Br)o3)nc2c1 (stereo not shown) [Example 270, [5-Amino-2-(5-bromo-furan-2-yl)-[1,2,4]triazolo[1,5-a]pyridin-7-yl]-(2-methyl-pyrrolidin-1-yl)-methanone] |  | Ki [1, 3]: 286 nM |
| COCCN(CCOC)C(=O)c1cc(N)n2nc(-c3nccs3)nc2c1 [Example 321, 5-Amino-2-thiazol-2-yl-[1,2,4]triazolo[1,5-a]pyridine-7-carboxylic acid bis-(2-methoxy-ethyl)-amide] | 319 |  |
| Nc1cc(C(=O)N2CCCCC2)cc2nc(-c3ccc(Br)o3)nn12 [Example 23, [5-Amino-2-(5-bromo-furan-2-yl)-[1,2,4]triazolo[1,5-a]pyridin-7-yl]-piperidin-1-yl-methanone] |  | Ki [1, 3]: 276 nM |
| CCN(CC)C(=O)C1CCCN(C(=O)c2cc(N)n3nc(-c4ccccn4)nc3c2)C1 (stereo not shown) [Example 434, 1-(5-Amino-2-pyridin-2-yl-[1,2,4]triazolo[1,5-a]pyridine-7-carbonyl)-piperidine-3-carboxylic acid diethylamide] |  | selectivity (A1/A2a) [2]: 52.6; Ki [2, 5]: 118 nM |
| COc1ccc(-c2nc3cc(C(=O)N4CCCC4)cc(N)n3n2)s1 [Example 69, [5-Amino-2-(5-methoxy-thiophen-2-yl)-[1,2,4]triazolo[1,5-a]pyridin-7-yl]-pyrrolidin-1-yl-methanone] | 339 |  |
| CCCN(C)C(=O)c1cc(N)n2nc(-c3ccc(Br)o3)nc2c1 [Example 268, 5-Amino-2-(5-bromo-furan-2-yl)-[1,2,4]triazolo[1,5-a]pyridine-7-carboxylic acid methyl-propyl-amide] |  | Ki [1, 3]: 275 nM |
| COc1ccc(-c2nc3cc(C(=O)NCCc4ccccc4F)cc(N)n3n2)s1 [Example 57, 5-Amino-2-(5-methoxy-thiophen-2-yl)-[1,2,4]triazolo[1,5-a]pyridine-7-carboxylic acid [2-(2-fluoro-phenyl)-ethyl]-amide] | 337 |  |
| COc1ccc(-c2nc3cc(C(=O)NC(C)c4ccccc4)cc(N)n3n2)s1 (stereo not shown) [Example 60, 5-Amino-2-(5-methoxy-thiophen-2-yl)-[1,2,4]triazolo[1,5-a]pyridine-7-carboxylic acid (1-phenyl-ethyl)-amide] | 392 |  |
| COC[C@H]1CCCN1C(=O)c1cc(N)n2nc(-c3ccc(Br)o3)nc2c1 [Example 386, [5-Amino-2-(5-bromo-furan-2-yl)-[1,2,4]triazolo[1,5-a]pyridin-7-yl]-(R-2-methoxymethyl-pyrrolidin-1-yl)-methanone] |  | Ki [1]: 292 nM |
| Nc1cc(C(=O)N2CCSCC2)cc2nc(-c3nccs3)nn12 [Example 318, (5-Amino-2-thiazol-2-yl-[1,2,4]triazolo[1,5-a]pyridin-7-yl)-thiomorpholin-4-yl-methanone] | 332 |  |
| CC(=O)N(C)C1CCN(C(=O)c2cc(N)n3nc(-c4nccs4)nc3c2)C1 (stereo not shown) [Example 403, N-[1-(5-Amino-2-thiazol-2-yl-[1,2,4]triazolo[1,5-a]pyridine-7-carbonyl)-pyrrolidin-3-yl]-N-methyl-acetamide] |  | selectivity (A1/A2a) [2]: 15.6; Ki [2, 5]: 398 nM |
| COc1ccc(-c2nc3cc(C(=O)NC4CCCCCC4)cc(N)n3n2)s1 [Example 74, 5-Amino-2-(5-methoxy-thiophen-2-yl)-[1,2,4]triazolo[1,5-a]pyridine-7-carboxylic acid cycloheptylamide] | 367 |  |
| Nc1cc(C(=O)N2CCCCC2)cc2nc(-c3ccco3)nn12 [Example 107, (5-Amino-2-furan-2-yl-[1,2,4]triazolo[1,5-a]pyridin-7-yl)-piperidin-1-yl-methanone] |  | Ki [1, 3]: 2720 nM |
| CCN(Cc1ccccc1)C(=O)c1cc(N)n2nc(-c3ccc[nH]3)nc2c1 [Example 94, 5-Amino-2-(1H-pyrrol-2-yl)-[1,2,4]triazolo[1,5-a]pyridine-7-carboxylic acid benzyl-ethyl-amide] | 395 |  |
| COc1ccc(CNC(=O)c2cc(N)n3nc(-c4ccc(Br)o4)nc3c2)cc1 [Example 231, 5-Amino-2-(5-bromo-furan-2-yl)-[1,2,4]triazolo[1,5-a]pyridine-7-carboxylic acid 4-methoxy-benzylamide] | 365 |  |
| Nc1cc(C(=O)N2CC=C(c3ccccc3)CC2)cc2nc(-c3nccs3)nn12 [Example 326, (5-Amino-2-thiazol-2-yl-[1,2,4]triazolo[1,5-a]pyridin-7-yl)-(4-phenyl-3,6-dihydro-2H-pyridin-1-yl)-methanone] | 373 |  |

| Compound | Ki [2, 4] [nM] | further results |
| --- | --- | --- |
| CCN(CC)C(=O)c1cc(N)n2nc(-c3ccc(Br)o3)nc2c1 [Example 21, 5-Amino-2-(5-bromo-furan-2-yl)-[1,2,4]triazolo[1,5-a]pyridine-7-carboxylic acid diethylamide] |  | Ki [1, 3]: 232 nM |
| COc1ccc(CNC(=O)c2cc(N)n3nc(-c4ccccn4)nc3c2)cc1 [Example 42, 5-Amino-2-pyridin-2-yl-[1,2,4]triazolo[1,5-a]pyridine-7-carboxylic acid 4-methoxy-benzylamide] | 341 |  |
| CN(CCc1ccccn1)C(=O)c1cc(N)n2nc(-c3nccs3)nc2c1 [Example 324, 5-Amino-2-thiazol-2-yl-[1,2,4]triazolo[1,5-a]pyridine-7-carboxylic acid methyl-(2-pyridin-2-yl-ethyl)-amide] | 295 |  |
| COc1ccc(CNC(=O)c2cc(N)n3nc(-c4cccs4)nc3c2)cc1 [Example 229, 5-Amino-2-thiophen-2-yl-[1,2,4]triazolo[1,5-a]pyridine-7-carboxylic acid 4-methoxy-benzylamide] | 384 |  |
| Nc1cc(C(=O)NCc2ccccc2Br)cc2nc(-c3ccc[nH]3)nn12 [Example 92, 5-Amino-2-(1H-pyrrol-2-yl)-[1,2,4]triazolo[1,5-a]pyridine-7-carboxylic acid 2-bromo-benzylamide] | 293 |  |
| COc1ccc(-c2nc3cc(C(=O)NC4CC4)cc(N)n3n2)s1 [Example 72, 5-Amino-2-(5-methoxy-thiophen-2-yl)-[1,2,4]triazolo[1,5-a]pyridine-7-carboxylic acid cyclopropylamide] | 260 |  |
| Nc1cc(C(=O)NC2CCC2)cc2nc(-c3ccc[nH]3)nn12 [Example 95, 5-Amino-2-(1H-pyrrol-2-yl)-[1,2,4]triazolo[1,5-a]pyridine-7-carboxylic acid cyclobutylamide] | 392 |  |
| Cc1ccsc1-c1nc2cc(C(=O)NC3CCCCC3)cc(N)n2n1 [Example 37, 5-Amino-2-(3-methyl-thiophen-2-yl)-[1,2,4]triazolo[1,5-a]pyridine-7-carboxylic acid cyclohexylamide] | 375 |  |
| COc1ccc(-c2nc3cc(C(=O)NCCc4ccccc4OC)cc(N)n3n2)s1 [Example 54, 5-Amino-2-(5-methoxy-thiophen-2-yl)-[1,2,4]triazolo[1,5-a]pyridine-7-carboxylic acid [2-(2-methoxy-phenyl)-ethyl]-amide] | 315 |  |
| CN(C)C(=O)CN(C)C(=O)c1cc(N)n2nc(-c3ccccn3)nc2c1 [Example 428, 5-Amino-2-pyridin-2-yl-[1,2,4]triazolo[1,5-a]pyridine-7-carboxylic acid dimethylcarbamoylmethyl-methyl-amide] |  | selectivity (A1/A2a) [2]: 53.1; Ki [2, 5]: 117 nM |
| CCN(Cc1ccccc1F)C(=O)c1cc(N)n2nc(-c3ccc(OC)s3)nc2c1 [Example 76, 5-Amino-2-(5-methoxy-thiophen-2-yl)-[1,2,4]triazolo[1,5-a]pyridine-7-carboxylic acid ethyl-(2-fluoro-benzyl)-amide] | 28.5 |  |
| COc1ccc(-c2nc3cc(C(=O)NCc4cccnc4)cc(N)n3n2)s1 [Example 61, 5-Amino-2-(5-methoxy-thiophen-2-yl)-[1,2,4]triazolo[1,5-a]pyridine-7-carboxylic acid (pyridin-3-ylmethyl)-amide] | 333 |  |
| CN(C)C(=O)[C@@H]1CCCN1C(=O)c1cc(N)n2nc(-c3nccs3)nc2c1 [Example 402, 1-(5-Amino-2-thiazol-2-yl-[1,2,4]triazolo[1,5-a]pyridine-7-carbonyl)-pyrrolidine-2-carboxylic acid dimethylamide] |  | selectivity (A1/A2a) [2]: 21.2; Ki [2, 5]: 293 nM |
| COc1ccc(-c2nc3cc(C(=O)N(CCN(C)C)Cc4ccccc4)cc(N)n3n2)s1 [Example 53, 5-Amino-2-(5-methoxy-thiophen-2-yl)-[1,2,4]triazolo[1,5-a]pyridine-7-carboxylic acid benzyl-(2-dimethylamino-ethyl)-amide] | 327 |  |
| CN(C)C(=O)CN(C)C(=O)c1cc(N)n2nc(-c3nccs3)nc2c1 [Example 399, 5-Amino-2-thiazol-2-yl-[1,2,4]triazolo[1,5-a]pyridine-7-carboxylic acid dimethylcarbamoylmethyl-methyl-amide] |  | selectivity (A1/A2a) [2]: 61.4; Ki [2, 5]: 101 nM |
| Nc1cc(C(=O)NCc2ccc(Cl)cc2)cc2nc(-c3ccoc3)nn12 [Example 230, 5-Amino-2-furan-3-yl-[1,2,4]triazolo[1,5-a]pyridine-7-carboxylic acid 4-chloro-benzylamide] | 329 |  |
